biological target: not listed separately; assay: Compound was evaluated for its ability to displace [3H]DPAT from 5-HT1A receptor in homogenates of bovine hippocampus

SMILES | Ki [nM]
CCCN(CCC)C1Cc2cccc3c2n(c(=O)n3C)C1 (stereo not given) | 124
CCCCNC1Cc2cccc3[nH]c(=O)n(c23)C1 (stereo not given) | > 1000

biological target: 5-hydroxytryptamine receptor 1A (Bos taurus); assay: Ability to displace [3H]-DPAT from 5-hydroxytryptamine 1A receptor in homogenates of bovine hippocampus.

SMILES | Ki [nM]
CCCN(CCC)C1Cc2cccc3oc(=O)n(c23)C1 (stereo not given) | > 1000
CCCN(CCC)C1Cc2cccc3nc(SC)n(c23)C1 (stereo not given) | 173
CCCN(CCC)C1Cc2cccc3ncn(c23)C1 (stereo not given) | 827
O=c1[nH]c2cccc3c2n1CC(N(CC1CC1)CC1CC1)C3 (stereo not given) | 95
CCCN(CCC)C1Cc2cccc3c2N(C1)C(=O)CN3 (stereo not given) | 49
CCCN(CCC)C1Cc2cccc3c2N(C1)C(=O)CC3 (stereo not given) | 2.4
CCCN(CCC)C1Cc2cccc3c2N(C1)C(=O)C3 (stereo not given) | 108
CCCN(CCC)C1Cc2cccc3c2N(CC3)C1 (stereo not given) | 13
CCCN(CCC)C1Cc2cccc3ccn(c23)C1 (stereo not given) | 252
CCCN(CCC)C1Cc2cccc3nc(C)n(c23)C1 (stereo not given) | 4490
O=c1[nH]c2cccc3c2n1CC(NCC1CC1)C3 (stereo not given) | 84
CCCN(CCC)C1Cc2cccc3c2N(CCC3)C1 (stereo not given) | 105
CCCN(CCC)C1Cc2cccc3[nH]c(=O)c(=O)n(c23)C1 (stereo not given) | > 1000

Reference: BindingDB's records for doi:10.1021/jm00084a013 (Upjohn Laboratories, 1992)
